# Like-named read-outs stand apart in the source and are kept apart here.
# Experiments:
# BSEP = target: T1, BSEP (Homo sapiens, UniProt O95342); assay: BSEP inhibition in vesicles using tritium labeled taurocholic acid; type: biochemical
# T1 construct: host or cells: Hi5 insect cell membrane vesicles
# Description: […]
# [1] = tested on: palmitate fatty acid oxidation; assay: mitochondrial fatty acid oxidation inhibition using palmitate; type: biochemical; details: N = 2; read-out: IC50 for impaired palmitate fatty acid oxidation
# Description: […]
# [2] = THLE 72 hour cytotoxicity assay based on ATP depletion; type: cell-based; details: human, THLE cells, after 72 hours
# Description: […]
# Sprague-Dawley rats [3] = assay: 7-Day Oral Toxicity Study in Rats (twice daily dosing, GLP); type: in vivo
# [4] = as above; type: in vivo; details: rat, in vivo, Day 7, 400 mg/kg/day
# human hepatocytes = assay: human hepatocyte imaging assay (cell loss); type: cell-based; details: 48 hours; three assessments in two human hepatocyte lots (LBN and HU4165)
# Description: […]
# MRP3 = target: T2, MRP3 (Homo sapiens, UniProt O15438); assay: MRP3 transporter inhibition in vesicles from HEK293 cells; type: biochemical
# T2 construct: host or cells: membrane vesicles from HEK293 cells
# T2 sequence (O15438 whole entry): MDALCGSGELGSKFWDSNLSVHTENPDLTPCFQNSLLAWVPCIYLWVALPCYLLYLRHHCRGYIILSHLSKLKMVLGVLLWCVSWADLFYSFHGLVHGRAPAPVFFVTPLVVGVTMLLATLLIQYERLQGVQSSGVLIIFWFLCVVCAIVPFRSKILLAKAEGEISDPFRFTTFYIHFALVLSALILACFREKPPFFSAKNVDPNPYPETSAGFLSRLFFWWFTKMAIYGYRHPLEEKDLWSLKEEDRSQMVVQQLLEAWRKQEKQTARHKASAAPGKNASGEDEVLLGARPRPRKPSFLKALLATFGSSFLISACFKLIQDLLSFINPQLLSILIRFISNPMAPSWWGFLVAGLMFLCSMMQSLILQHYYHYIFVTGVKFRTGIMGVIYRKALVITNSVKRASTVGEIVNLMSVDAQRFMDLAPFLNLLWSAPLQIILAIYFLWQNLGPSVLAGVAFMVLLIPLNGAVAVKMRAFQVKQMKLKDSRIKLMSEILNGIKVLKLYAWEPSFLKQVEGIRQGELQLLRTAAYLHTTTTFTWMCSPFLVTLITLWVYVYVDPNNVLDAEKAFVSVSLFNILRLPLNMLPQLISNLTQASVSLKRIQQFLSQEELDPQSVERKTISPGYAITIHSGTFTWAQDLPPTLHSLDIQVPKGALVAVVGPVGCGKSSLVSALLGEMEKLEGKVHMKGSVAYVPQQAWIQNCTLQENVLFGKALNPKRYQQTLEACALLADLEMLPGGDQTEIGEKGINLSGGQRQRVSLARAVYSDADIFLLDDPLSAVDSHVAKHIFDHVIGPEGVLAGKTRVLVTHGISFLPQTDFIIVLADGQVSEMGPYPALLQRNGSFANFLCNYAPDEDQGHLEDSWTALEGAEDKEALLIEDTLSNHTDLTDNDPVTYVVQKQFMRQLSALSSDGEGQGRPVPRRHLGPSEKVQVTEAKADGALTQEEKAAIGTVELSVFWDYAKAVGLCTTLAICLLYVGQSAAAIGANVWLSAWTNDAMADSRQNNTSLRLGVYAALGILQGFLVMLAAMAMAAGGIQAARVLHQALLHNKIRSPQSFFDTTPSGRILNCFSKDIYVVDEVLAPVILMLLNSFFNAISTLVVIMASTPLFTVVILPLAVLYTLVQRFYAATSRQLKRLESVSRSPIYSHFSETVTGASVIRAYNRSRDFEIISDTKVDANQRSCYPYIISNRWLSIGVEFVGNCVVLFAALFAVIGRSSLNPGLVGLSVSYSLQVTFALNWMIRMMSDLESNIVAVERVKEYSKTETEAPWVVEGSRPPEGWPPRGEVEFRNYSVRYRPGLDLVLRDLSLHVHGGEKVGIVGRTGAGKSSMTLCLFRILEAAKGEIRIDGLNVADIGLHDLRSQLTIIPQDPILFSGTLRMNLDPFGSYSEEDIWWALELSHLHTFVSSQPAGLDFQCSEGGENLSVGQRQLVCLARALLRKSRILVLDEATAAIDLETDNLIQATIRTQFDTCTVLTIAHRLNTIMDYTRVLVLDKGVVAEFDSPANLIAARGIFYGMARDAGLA
# Description: […]
# MDR3 = target: T3, MDR3 (Homo sapiens, UniProt P21439); assay: MDR3 inhibition/activation in human hepatocytes (d9-choline to d9-phosphatidylcholine); type: cell-based; details: 200 μmol/L, N = 3
# T3 construct: biotransformation of d 9‐choline to d 9‐phosphatidylcholine in human hepatocytes; host or cells: human hepatocytes
# T3 sequence (P21439 whole entry): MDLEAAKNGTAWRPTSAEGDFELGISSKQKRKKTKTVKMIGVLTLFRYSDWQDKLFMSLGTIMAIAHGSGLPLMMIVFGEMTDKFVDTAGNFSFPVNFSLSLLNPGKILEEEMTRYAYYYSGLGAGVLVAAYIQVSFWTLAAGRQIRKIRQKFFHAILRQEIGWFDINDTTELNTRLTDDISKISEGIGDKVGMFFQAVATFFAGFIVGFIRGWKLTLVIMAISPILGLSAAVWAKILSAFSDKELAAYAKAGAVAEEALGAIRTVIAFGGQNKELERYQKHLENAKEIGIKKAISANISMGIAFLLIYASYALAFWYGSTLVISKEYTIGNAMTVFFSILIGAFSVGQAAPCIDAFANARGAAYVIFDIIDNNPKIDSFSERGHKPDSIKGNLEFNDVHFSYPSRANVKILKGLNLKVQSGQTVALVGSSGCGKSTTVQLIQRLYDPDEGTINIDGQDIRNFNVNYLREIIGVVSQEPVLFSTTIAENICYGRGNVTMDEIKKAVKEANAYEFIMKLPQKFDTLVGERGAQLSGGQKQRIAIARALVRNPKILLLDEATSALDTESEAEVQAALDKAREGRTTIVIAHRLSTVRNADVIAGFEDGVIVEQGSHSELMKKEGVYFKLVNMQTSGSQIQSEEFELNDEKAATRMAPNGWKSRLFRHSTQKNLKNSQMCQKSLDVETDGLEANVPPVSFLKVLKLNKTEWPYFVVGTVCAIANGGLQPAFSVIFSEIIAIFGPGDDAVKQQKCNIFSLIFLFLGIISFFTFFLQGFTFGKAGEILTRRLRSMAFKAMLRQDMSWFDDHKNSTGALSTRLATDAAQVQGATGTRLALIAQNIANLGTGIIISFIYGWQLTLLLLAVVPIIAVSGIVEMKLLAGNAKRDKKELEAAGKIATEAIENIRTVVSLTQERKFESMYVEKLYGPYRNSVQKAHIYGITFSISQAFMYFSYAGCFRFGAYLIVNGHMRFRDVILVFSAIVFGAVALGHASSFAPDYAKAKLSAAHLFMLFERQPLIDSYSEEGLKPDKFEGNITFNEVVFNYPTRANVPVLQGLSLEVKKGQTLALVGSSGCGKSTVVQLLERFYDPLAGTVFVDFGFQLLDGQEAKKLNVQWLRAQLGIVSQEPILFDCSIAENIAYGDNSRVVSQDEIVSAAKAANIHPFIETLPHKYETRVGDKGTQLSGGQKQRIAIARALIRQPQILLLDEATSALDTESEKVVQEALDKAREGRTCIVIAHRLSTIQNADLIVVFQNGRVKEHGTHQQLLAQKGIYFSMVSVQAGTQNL
# Description: […]
# Sprague-Dawley rats [5] = assay: 6-Month Oral Toxicity Study in Sprague Dawley Rats; type: in vivo, rat
# Experimental: (§1) In the longer-term studies Sprague-Dawley rats were administered PF-04895162 once daily for 28 days or 6 months at doses up to 100 mg/kg/day. […] The drug was well absorbed into the systemic circulation of male and female rats following oral administration for 6 months.
# [6] = 6-Month Oral Toxicity Study in Sprague Dawley Rats; type: in vivo, rat; details: Sprague-Dawley, rat, plasma, oral
# Experimental: as §1
# [7] = ADME of single oral dose of 14C-labeled parent in male rats; type: in vivo, rat; details: single oral dose (target 15 mg/kg) 14C-labeled
# Description: A summary of liver effects along with a detailed synopsis of each nonclinical study that was used to support the Investigational New Drug Application filing along with longer term studies can be found in the supplemental information associated with this article. In brief, this compound advanced into clinical studies without any histopathological evidence of liver injury or reproducible transaminase elevations in rats and monkeys. The addition of total bile acid analysis in nonclinical safety assessment studies, although germane to this investigation retrospectively, is not routine.26 Absorption, distribution, metabolism, and excretion of parent and metabolites were examined in albino and pigmented male rats after administration of a single oral dose (target 15 mg/kg) of ^14C‐labeled parent. Elimination of radioactivity occurred mostly within the first 24 hours after dosing with approximately 71 and 22% of the administered dose excreted in feces and urine, respectively. An equivalent human study was not performed.
# [8] = 9-Month Oral Toxicity Study in Cynomolgus Monkeys; type: in vivo, cynomolgus monkey; details: cynomolgus monkey, plasma, oral, 100 mg/kg/day
# Experimental: (§2) A 28-day nasogastric toxicity study was conducted in cynomolgus monkeys at up to 100 mg/kg/day and a 9-month oral toxicity study with a 3-month interim sacrifice was conducted in cynomolgus monkeys at up to 100 mg/kg/day.
# cynomolgus monkeys = assay: 9-Month Oral Toxicity Study in Cynomolgus Monkeys; type: in vivo, cynomolgus monkey
# Experimental: as §2
# healthy subjects = assay: Biomarkers of liver injury in residual plasma PK samples (miRNA122, total and fractionated bile acids); type: in vivo, human; details: 300 mg BID
# Experimental: Methodology for the following in vitro assays and biomarker determinations were as follows: THLE/HepG2 72 hour cytotoxicity assays based on ATP depletion;14 mitochondrial functional assessment based on state 3/4 respiration determination in the presence of glutamate/malate15, 16 or fatty acid oxidation inhibition using palmitate;17 BSEP inhibition in vesicles using tritium labeled taurocholic acid (TCA);18 human hepatocyte imaging assay determination of cell loss, mitochondrial membrane permeability, glutathione content, and production of reactive oxygen species;19 miRNA‐122 determination using QuantiGene 2.0 miRNA;20 human multidrug resistance protein 3 inhibition/activation (MDR3, encoded by ABCB4) was determined at Biotranex based on biotransformation of d 9‐choline to d 9‐phosphatidylcholine in human hepatocytes;21 and fractionated bile acid determinations were conducted by LC‐MS/MS methodology.22 These various assays have been published in detail and used by us in previous investigative works.2, 3, 21 Examination of human sodium/taurocholate cotransporting polypeptide (NTCP, encoded by SLC10A1) was determined based on uptake of tritium labeled TCA in CHO cells and human multidrug resistance‐associated protein 3/4 (MRP3/4, encoded by ABCC3/4) transporter inhibition in vesicles obtained from HEK293 cells using tritium labeled estradiol 17 β‐D‐glucuronide and dehydroepiandrosterone sulfate as substrates, respectively.
# Three of eight treated healthy subjects consented for additional analyses of residual plasma PK samples for biomarkers of liver injury (e.g., miRNA122, total, and fractionated bile acids).
# [9] = tested on: liver mitochondrial function; assay: mitochondrial state 3/4 respiration in the presence of glutamate/malate; type: biochemical; details: N = 2
# Description: […]
# [10] = 100, 200, and 400 mg/kg/day, 7 days
# [11] = twice daily for 7 days, up to 400 mg/kg/day
# T1 sequence (O95342 whole entry): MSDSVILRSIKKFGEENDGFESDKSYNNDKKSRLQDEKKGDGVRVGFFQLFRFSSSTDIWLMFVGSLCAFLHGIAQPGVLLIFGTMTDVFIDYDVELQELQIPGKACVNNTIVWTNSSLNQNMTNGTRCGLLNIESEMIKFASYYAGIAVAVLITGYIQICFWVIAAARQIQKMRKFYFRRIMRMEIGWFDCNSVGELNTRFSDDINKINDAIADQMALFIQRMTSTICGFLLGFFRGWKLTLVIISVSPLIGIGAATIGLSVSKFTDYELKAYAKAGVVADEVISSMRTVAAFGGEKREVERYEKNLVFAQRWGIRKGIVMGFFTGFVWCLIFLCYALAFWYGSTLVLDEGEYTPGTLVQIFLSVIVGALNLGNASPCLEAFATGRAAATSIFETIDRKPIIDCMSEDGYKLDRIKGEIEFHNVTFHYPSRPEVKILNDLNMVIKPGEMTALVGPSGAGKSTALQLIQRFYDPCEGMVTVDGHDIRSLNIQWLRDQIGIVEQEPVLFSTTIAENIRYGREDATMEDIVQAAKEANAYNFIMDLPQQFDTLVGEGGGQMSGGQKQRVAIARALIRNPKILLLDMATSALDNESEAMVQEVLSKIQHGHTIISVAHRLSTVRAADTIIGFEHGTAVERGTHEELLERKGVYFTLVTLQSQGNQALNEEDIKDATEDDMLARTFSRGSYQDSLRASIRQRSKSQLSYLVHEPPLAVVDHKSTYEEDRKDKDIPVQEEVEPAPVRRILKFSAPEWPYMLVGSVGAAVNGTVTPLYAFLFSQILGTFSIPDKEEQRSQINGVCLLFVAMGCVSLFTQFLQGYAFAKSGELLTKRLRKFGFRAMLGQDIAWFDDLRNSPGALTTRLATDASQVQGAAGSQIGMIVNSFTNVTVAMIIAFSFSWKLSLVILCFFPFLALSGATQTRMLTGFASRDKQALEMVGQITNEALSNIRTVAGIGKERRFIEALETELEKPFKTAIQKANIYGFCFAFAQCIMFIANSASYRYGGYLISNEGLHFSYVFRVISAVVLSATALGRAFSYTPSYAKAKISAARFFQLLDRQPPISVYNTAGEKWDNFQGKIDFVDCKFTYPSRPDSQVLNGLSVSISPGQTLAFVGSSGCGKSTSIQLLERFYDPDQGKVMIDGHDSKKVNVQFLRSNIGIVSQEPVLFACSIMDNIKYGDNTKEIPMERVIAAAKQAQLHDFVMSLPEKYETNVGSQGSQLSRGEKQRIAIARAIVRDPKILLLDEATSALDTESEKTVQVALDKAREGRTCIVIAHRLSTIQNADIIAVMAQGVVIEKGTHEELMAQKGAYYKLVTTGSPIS
smiles,measurement,setting,value
"O=C(Cc1ccc(F)cc1)Nn1c(C2CC2)nc2cc(F)ccc2c1=O [PF‐04895162, N‐(2‐cyclopropyl‐7‐fluoro‐4‐oxoquinazolin‐3(4H)‐yl)‐2‐(4‐fluorophenyl)ethanamide]",IC50,"BSEP; Hi5 vesicles, N = 4, geometric mean",106 µM
same,ratio of systemic Cmax to BSEP vesicle IC50,BSEP; initially (single dose),0.12 x
same,IC50,[1],~70 µM
same,IC50 at 72 h,[2],~192 µM
same,Clinical findings and body temperature,Sprague-Dawley rats [3]; [10],test article-induced hypothermic condition
same,hematology parameters,Sprague-Dawley rats [3]; [10],no adverse test article-related effects
same,mortality,Sprague-Dawley rats [3]; [10],All main study animals survived to study termination
same,body weight and food consumption,Sprague-Dawley rats [3]; treated males and females,Decreases in body weight and food consumption
same,ALT,Sprague-Dawley rats [3]; [11],did not reproduce ALT findings
same,liver weight,Sprague-Dawley rats [3]; [11],increased liver weight in female rats
same,Cmax,"[4]; female, read-out: Total Cmax (mean), female rats",10300 ng/mL
same,Cmax,"[4]; male, read-out: Total Cmax (mean), male rats",7920 ng/mL
same,AC50,human hepatocytes,> 125 µM
same,effect on MRP3,MRP3,no inhibitory effect
same,effect on MDR3 activity,MDR3,stimulation
same,liver weights,"Sprague-Dawley rats [5]; 6 months, up to 100 mg/kg/day",Increased liver weights
same,deaths,"Sprague-Dawley rats [5]; 10, 30 and 100 mg/kg/day, 6 months",no test-article related deaths
same,accumulation of parent drug / induction of drug metabolizing enzymes,Sprague-Dawley rats [5]; by the end of the 6 month study,no evidence of accumulation of parent drug or any apparent induction of drug metabolizing enzymes
same,Microscopic changes in liver,Sprague-Dawley rats [5]; females at 30 mg/kg/day and males and females at 100 mg/kg/day for 6 months,centrilobular hypertrophy
same,body temperature,"Sprague-Dawley rats [5]; females only, Days 1 and 91 at 30 and 100 mg/kg/day",mild decrease in body temperature
same,Mean food consumption,"Sprague-Dawley rats [5]; males and females at 100 mg/kg/day, entire 6-month period",less compared to controls
same,clinical chemistry changes,Sprague-Dawley rats [5]; males and/or females at 30 and/or 100 mg/kg/day,"higher phosphorus, potassium, bilirubin, and cholesterol values and lower chloride and glucose levels"
same,Mean body weights,"Sprague-Dawley rats [5]; males at 30 and 100 mg/kg/day, females at 100 mg/kg/day",lower compared to controls
same,transaminases,"Sprague-Dawley rats [5]; once daily for 6 months, up to 100 mg/kg/day",No transaminase elevations
same,Cmax,"[6]; both sexes, 100 mg/kg/day, studies >1 month in duration, read-out: total Cmax concentrations in the rat (male-female)",6.9 to 15.1 µM
same,Cmax,"[6]; female, Day 1, 100 mg/kg/day, read-out: Total Cmax, female rats",5350 ng/mL
same,Cmax,"[6]; male, Day 1, 100 mg/kg/day, read-out: Total Cmax, male rats",2460 ng/mL
same,administered dose excreted in feces,[7],approximately 71%
same,administered dose excreted in urine,[7],~22%
same,Cmax,"[8]; both sexes, after 9 months, males and females, read-out: total Cmax",~29000 ng/mL
same,Cmax,"[8]; studies >1 month in duration, read-out: total Cmax concentrations in the monkey",81.6 µM
same,"hematology, coagulation, clinical chemistry, macroscopic and microscopic pathology","cynomolgus monkeys; 9 months, up to 100 mg/kg/day",No effect of treatment
same,"body weights, body temperatures, hematology, coagulation, clinical chemistry, ophthalmoscopic, electrocardiographic examinations","cynomolgus monkeys; 10, 30 and 100 mg/kg/day",No effect of treatment
same,liver weights,"cynomolgus monkeys; males at 30 and 100 mg/kg/day, females at 100 mg/kg/day, after 9 months",increases in liver weights
same,mortality,cynomolgus monkeys; one female at 100 mg/kg/day,found dead on Day 45
same,clinical findings,cynomolgus monkeys; sporadically in a few males and females at 100 mg/kg/day,Gross tremors and distended abdomens
same,"plasma miRNA122, Subject 8",healthy subjects; Period 3,elevated (>ULN) by Day 5
same,fasting total bile acid levels of treated subjects,"healthy subjects; Period 3, normal range <10 μmol/L",within the normal range
same,"hydrophobicity index of serum bile acids, Subject 6","healthy subjects; Day 7, AUC 0-12 h",0.47
same,"hydrophobicity index of serum bile acids, Subject 8","healthy subjects; Day 7, AUC 0-12 h",0.40
same,"hydrophobicity index of serum bile acids, Subject 10","healthy subjects; Day 7, AUC 0-12 h",0.45
same,IC50,[9]; read-out: IC50 for inhibition of glutamate/malate respiration,~10 µM
same,IC50,[9]; read-out: IC50 for uncoupling activity,> 100 µM
